In the NIST ThermoML archive (doi:10.1016/j.fluid.2013.12.020):
± gives the expanded uncertainty stated by the source.

Settings: 101.33 kPa, Liquid; for viscosity: Falling or rolling sphere viscometry; for mass density: Vibrating tube method

SMILES | viscosity (293.15 K) | mass density (293.15 K) | viscosity (303.15 K) | mass density (303.15 K) | viscosity (313.15 K) | mass density (313.15 K) | viscosity (323.15 K) | mass density (323.15 K) | viscosity (333.15 K) | mass density (333.15 K)
Cn1cc[n+](CCO)c1.N#C[N-]C#N [3-(2-hydroxyethyl)-1-methyl-1H-imidazol-3-ium dicyanoazanide] | 121.5 ± 6.2 mPa·s | 1192.85 ± 2.7 kg/m3 | 68.67 ± 3 mPa·s | 1186.37 ± 2.7 kg/m3 | 42.93 ± 1.9 mPa·s | 1179.92 ± 2.7 kg/m3 | 28.96 ± 1.3 mPa·s | 1173.52 ± 2.6 kg/m3 | 20.67 ± 0.9 mPa·s | 1167.18 ± 2.6 kg/m3
NCCO [2-aminoethan-1-ol] | 23.76 ± 0.98 mPa·s | 1015.96 ± 0.3 kg/m3 | 14.85 ± 0.61 mPa·s | 1008.05 ± 0.29 kg/m3 | 9.943 ± 0.41 mPa·s | 1000.09 ± 0.29 kg/m3 | 6.984 ± 0.29 mPa·s | 992.07 ± 0.29 kg/m3 | 5.108 ± 0.21 mPa·s | 983.98 ± 0.29 kg/m3
CCCCn1cc[n+](C)c1.N#CN=C=[N-] [1-butyl-3-methylimidazolium dicyanamide] | 48.53 ± 2.1 mPa·s | 1065.4 ± 2.2 kg/m3 | 31.73 ± 1.4 mPa·s | 1059.09 ± 2.1 kg/m3 | 22.09 ± 0.96 mPa·s | 1052.83 ± 2.1 kg/m3 | 16.17 ± 0.7 mPa·s | 1046.62 ± 2.1 kg/m3 | 12.35 ± 0.54 mPa·s | 1040.48 ± 2 kg/m3
